Patent publication US20040044000A1, “Isoquinoline derivatives as matrix metalloproteinase inhibitors” (priority 2002, published 2004)
Where two headings read alike, the source gives them in different places.

Target: T1, MMP-13 catalytic domain (MMP-13CD) (Homo sapiens, UniProt P45452)
T1 construct: use the catalytic domain of the MMP-13 enzyme, namely matrix metalloproteinase-13 catalytic domain (“MMP-13CD”), rather than the corresponding full-length enzyme
Experiment: Inhibition of MMP-13 catalytic domain (thiopeptolide substrate hydrolysis)
Format: biochemical
Settings: read-out: MMP-13CD IC50
Excerpt: The assays measure the amount by which a test compound reduces the hydrolysis of a thiopeptolide substrate catalyzed by a matrix metalloproteinase enzyme. Such assays are described in detail by Ye et al., in Biochemistry, 1992;31(45):11231-11235, which is incorporated herein by reference. One such assay is described below in Biological Method 1.
Some of the particular methods described below use the catalytic domain of the MMP-13 enzyme, namely matrix metalloproteinase-13 catalytic domain (“MMP-13CD”), rather than the corresponding full-length enzyme, MMP-13. It has been shown previously by Ye Qi-Zhuang, Hupe D., and Johnson L. (Current Medicinal Chemistry, 1996;3:407-418) that inhibitor activity against a catalytic domain of an MMP is predictive of the inhibitor activity against the respective full-length MMP enzyme.
Thiopeptolide substrates show virtually no decomposition or hydrolysis at or below neutral pH in the absence of a matrix metalloproteinase enzyme. A typical thiopeptolide substrate commonly utilized for assays is Ac-Pro-Leu-Gly-thioester-Leu-Leu-Gly-OEt. A 100 μL assay mixture will contain 50 mM of N-2-hydroxyethylpiperazine-N′-2-ethanesulfonic acid buffer (“HEPES,” pH 7.0), 10 mM CaCl2, 100 μM thiopeptolide substrate, and 1 mM 5,5′-dithio-bis-(2-nitro-benzoic acid) (DTNB). The thiopeptolide substrate concentration may be varied, for example from 10 to 800 μM to obtain Km and Kcat values. The change in absorbance at 405 nm is monitored on a Thermo Max microplate reader (molecular Devices, Menlo Park, Calif.) at room temperature (22° C.). The calculation of the amount of hydrolysis of the thiopeptolide substrate is based on E412=13600 M^−1 cm^−1 for the DTNB-derived product 3-carboxy-4-nitrothiophenoxide. Assays are carried out with and without matrix metalloproteinase inhibitor compounds, and the amount of hydrolysis is compared for a determination of inhibitory activity of the test compounds.
Test compounds were evaluated at various concentrations in order to determine their respective IC50 values, the micromolar concentration of compound required to cause a 50% inhibition of catalytic activity of the respective enzyme.

[1] = Biological Table 2, compounds of Example 66

SMILES | IC50 (Biological Table 1) | IC50 [1]
O=C(NCc1cccnc1)c1ccc2ccn(CCOc3ccccc3)c(=O)c2c1 [Example 42, 1-oxo-2-(2-phenoxyethyl)-1,2-dihydroisoquinoline-7-carboxylic Acid (pyridin-3-ylmethyl)amide] | 55 µM | 
O=C(NCc1ccco1)c1ccc2ccn(Cc3ccc(-c4nn[nH]n4)cc3)c(=O)c2c1 [Example 62, 1-oxo-2-[4-(2H-tetrazol-5-yl)benzyl]-1,2-dihydroisoquinoline-7-carboxylic Acid (furan-2-ylmethyl)amide] | 12 µM | 
O=c1c2cc(C#CCc3ccccc3)ccc2ccn1CC(CO)(CO)CO [Example 66b, 2-(3-Hydroxy-2,2-bis-hydroxymethyl-propyl)-7-(3-phenyl-prop-1-ynyl)-2H-isoquinolin-1-one] |  | > 100 µM
COc1cc(CNC(=O)c2ccc3ccn(CCOc4ccccc4)c(=O)c3c2)ccn1 [Example 43, 1-oxo-2-(2-phenoxyethyl)-1,2-dihydroisoquinoline-7-carboxylic Acid (2-methoxypyridin-4-ylmethyl)amide] | 3.8 µM | 
COc1ccc2nc(Cn3ccc4ccc(C#CCc5ccccc5)cc4c3=O)c(=O)oc2c1 [Example 66u, 7-Methoxy-3-[1-oxo-7-(3-phenyl-prop-1-ynyl)-1H-isoquinolin-2-ylmethyl]-1,4-benzoxazin-2-one] |  | 11 µM
Cc1ccc(CNC(=O)c2ccc3ccn(CCOc4ccccc4)c(=O)c3c2)cc1 [Example 47, 1-oxo-2-(2-phenoxyethyl)-1,2-dihydroisoquinoline-7-carboxylic Acid 4-methylbenzamide] | > 10 µM | 
O=c1c2cc(C#CCc3ccccc3)ccc2ccn1CCCC(F)(F)F [Example 66ai, 7-(3-Phenyl-prop-1-ynyl)-2-(4,4,4-trifluoro-butyl)-2H-isoquinolin-1-one] |  | 14 µM
N#CCCn1ccc2ccc(C#CCc3ccccc3)cc2c1=O [Example 66d, 3-[1-Oxo-7-(3-phenyl-prop-1-ynyl)-1H-isoquinolin-2-yl]-propionitrile] |  | 4.8 µM
O=c1c2cc(C#CCc3ccccc3)ccc2ccn1CCC1OCCCO1 [Example 66f, 2-(2-1,3-Dioxinan-2-yl-ethyl)-7-(3-phenyl-prop-1-ynyl)-2H-isoquinolin-1-one] |  | > 30 µM
N#CCCCCCCn1ccc2ccc(C#CCc3ccccc3)cc2c1=O [Example 66aj, 7-[1-Oxo-7-(3-phenyl-prop-1-ynyl)-1H-isoquinolin-2-yl]-heptanenitrile] |  | 3.9 µM
O=c1c2cc(C#CCc3ccccc3)ccc2ccn1CC1OCCO1 [Example 66n, 2-1,3-Dioxolan-2-ylmethyl-7-(3-phenyl-prop-1-ynyl)-2H-isoquinolin-1-one] |  | 24 µM
N#CCCCn1ccc2ccc(C#CCc3ccccc3)cc2c1=O [Example 66c, 4-[1-Oxo-7-(3-phenyl-prop-1-ynyl)-1H-isoquinolin-2-yl]-butyronitrile] |  | 22.5 µM
O=c1c2cc(C#CCc3ccccc3)ccc2ccn1CCC1OCCO1 [Example 66m, 2-(2-1,3-Dioxolan-2-yl-ethyl)-7-(3-phenyl-prop-1-ynyl)-2H-isoquinolin-1-one] |  | 24 µM
N#Cc1ccc(Cn2ccc3ccc(C(=O)NCc4ccncc4)cc3c2=O)cc1 [Example 33, 2-(4-cyanobenzyl)-1-oxo-1,2-dihydro-isoquinoline-7-carboxylic Acid (pyridin-4-ylmethyl)amide] | 1.3 µM | 
O=c1c2cc(C#CCc3ccccc3)ccc2ccn1CC(F)(F)F [Example 66ah, 7-(3-Phenyl-prop-1-ynyl)-2-(2,2,2-trifluoro-ethyl)-2H-isoquinolin-1-one] |  | 24 µM
CS(=O)(=O)c1ccc(Cn2ccc3ccc(C#CCc4ccccc4)cc3c2=O)cc1 [Example 66o, 2-(4-Methanesulfonyl-benzyl)-7-(3-phenyl-prop-1-ynyl)-2H-isoquinolin-1-one] |  | 95 µM
CC(C)(CO)Cn1ccc2ccc(C#CCc3ccccc3)cc2c1=O [Example 66y, 2-(3-Hydroxy-2,2-dimethyl-propyl)-7-(3-phenyl-prop-1-ynyl)-2H-isoquinolin-1-one] |  | 20 µM
